We go through 16 compounds from US20240124408A1 (Sanofi, priority 2020, published 2024).

The term EC50 denotes the concentration that produces a half-maximal response.

Structures can show the parent of a compound that is named as a salt. Where two headings read alike, the source gives them in different places. Where only a bound is given, the exact number is not on record here.

Assay [1] has as its target T1, human TRPM8 (Homo sapiens, UniProt Q7Z2W7).
T1 construct: expressed in transfected cells; host or cells: CHO (p658 mammalian expression vector)
In words: In vitro human TRPM8 fluorescence calcium flux assay (recombinant CHO cells, Fluo4-AM, FDSS6000). In kind it is cell-based. Particulars: recombinant CHO cells expressing human TRPM8; menthol-related EC50, normalized to 100 μM menthol. In outline:
(§1)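 Agonist EC50 values come from sixteen-point dose responses normalized to the 100 μM menthol maximum, fitted sigmoidally. Calcium rise was followed for 3 min post-addition in recombinant CHO lines (human or pig TRPM8). Cells were dye-loaded with 2 μM Fluo4-AM, 1 h at room temperature, probenecid-containing HBSS.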
(In general: A change in cytosolic calcium serves as a functional read-out for many receptors and channels.)

For assay [2], the target named is T2, pig TRPM8 (Sus scrofa, UniProt F1SM15).
T2 construct: expressed in transfected cells; host or cells: CHO (pcDNA5/FRT/TO vector; hygromycin B and blasticidin selection)
The assay can be described thus: In vitro pig TRPM8 fluorescence calcium flux assay (recombinant CHO cells, Fluo4-AM, FDSS6000). Particulars: recombinant CHO cells expressing pig TRPM8; menthol-related EC50, normalized to 100 μM menthol. In kind it is cell-based. In outline:
as §1

The target of assay [3] is T1, human TRPM8. The assay can be described thus: In vitro human TRPM8 automated patch-clamp assay (SyncroPatch 384PE, CHO cells). In kind it is cell-based. The following applies: CHO cells expressing human TRPM8, 28° C. In a few lines: (§2)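 Whole-cell automated patch clamp on engineered CHO lines at 28 °C, held at −60 mV, with −80 to +80 mV ramps every 5 s; one compound concentration per well. Peak current minus pre-addition baseline was normalised to no-compound control and Emax, and EC50 was fitted; 200 μM menthol wells served as control.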

Assay [4] has as its target T2, pig TRPM8. In words: In vitro pig TRPM8 automated patch-clamp assay (SyncroPatch 384PE, CHO cells). In kind it is cell-based. The following applies: CHO cells expressing pig TRPM8, 28° C. In outline:
as §2

Assay [5] deals with Male castrated German Landrace pigs. In words: In vivo assay: enhancement of swallowing in anesthetized pigs (manometry with pressure probe in the mouth). Particulars: Sus scrofa, anesthetized pig, dose per pig 10 mg, injected in 1 ml vehicle into the oral cavity. How it is done:
For testing the efficacy of TRPM8 agonists for enhancing swallowing, experiment using the pig model can be conducted according to assay described below. The efficacy can be compared to a vehicle control.
Male castrated German Landrace pigs (weight range of 20 to 35 kg) were used. Anesthesia was induced by injecting 20 ml of a urethane solution (20 g/100 mL dissolved in saline) into an ear vein corresponding to a dose of around […]. Anesthesia was maintained by continuous infusion of 15-20 mL per hour of the urethane solution, which was infused into an epigastric vein, and additionally by infusion of Zoletil and Rompun (500 mg Zoletil is disssovled in 10 ml of Rompun 2%, then diluted 1:10 with saline and 3-5 mL per hour of this diluted solution. Bupivacain 0.5% JENAPHARM@ was injected for additional infiltration anesthesia. Anesthesia was monitored via pulsoximetry (ear) and regular reflex testing for pain. Body temperature was monitored and maintained by an infrared lamp.
Preparation of pigs: Swallowing responses were assessed by manometry with a pressure probe placed into the mouth of the pig. The pressure probe consisted of a plastic tube (diameter 3.3 mm) to which a small balloon was attached. The tube was advanced about 12-14 cm into the mouth related to the snout. The balloon was then inflated with air to yield a pressure of 20-30mbar (vehicle). Ideally a swallowing response with 1 ml of fluid raised this pressure by 20-50mbar which was then referred to as the swallowing pressure (the increment of this pre-set pressure in the inflated balloon after swallowing) to be further enhanced by an effective test drug.
The free end of the tube was connected to a differential pressure transducer MPX Type 399/2 (Hugo Sachs Elektronik-Harvard Apparatus) and a Hugo Sachs Plugsys-amplifier system. The biological signals were recorded by a Hugo Sachs Plugsys-amplifier system and continuously stored on a computer hard disk by an on line data acquisition and analysis system (Hem 4.2 Notocord Systems, Croissy-sur-Seine, France).
A second tube referred to as injection tube was placed dorsally to the manometer tube to enable the administration of the vehicle that induced the baseline swallowing activity, or of this same vehicle containing the test compound.
Induction and assessment of swallowing activity: 0.5h after anesthesia induction 1 ml of a fluid or the vehicle for the test drug was injected into the injection tube placed into the oral cavity. The number of swallows was counted and the highest-pressure increment was registered. Challenges with vehicle were repeated at intervals of 30 min until two consecutive vehicle challenges show an about equal swallowing response. The next challenge was the vehicle loaded with the test drug (otherwise same procedure). The efficacy of a compound to enhance swallowing as shown in Table 7 was expressed as the % increase in pressure and frequency of swallowing after administration of the compound compared to the pressure and frequency recorded for its vehicle administered just before.

Where [6] appears, read: frequency of swallowing compared with vehicle administered just before, read-out: % increase frequence vs vehicle.
[7] abbreviates: swallowing pressure compared with vehicle administered just before, read-out: % increase pressure vs vehicle.

T1 sequence (Q7Z2W7 whole entry): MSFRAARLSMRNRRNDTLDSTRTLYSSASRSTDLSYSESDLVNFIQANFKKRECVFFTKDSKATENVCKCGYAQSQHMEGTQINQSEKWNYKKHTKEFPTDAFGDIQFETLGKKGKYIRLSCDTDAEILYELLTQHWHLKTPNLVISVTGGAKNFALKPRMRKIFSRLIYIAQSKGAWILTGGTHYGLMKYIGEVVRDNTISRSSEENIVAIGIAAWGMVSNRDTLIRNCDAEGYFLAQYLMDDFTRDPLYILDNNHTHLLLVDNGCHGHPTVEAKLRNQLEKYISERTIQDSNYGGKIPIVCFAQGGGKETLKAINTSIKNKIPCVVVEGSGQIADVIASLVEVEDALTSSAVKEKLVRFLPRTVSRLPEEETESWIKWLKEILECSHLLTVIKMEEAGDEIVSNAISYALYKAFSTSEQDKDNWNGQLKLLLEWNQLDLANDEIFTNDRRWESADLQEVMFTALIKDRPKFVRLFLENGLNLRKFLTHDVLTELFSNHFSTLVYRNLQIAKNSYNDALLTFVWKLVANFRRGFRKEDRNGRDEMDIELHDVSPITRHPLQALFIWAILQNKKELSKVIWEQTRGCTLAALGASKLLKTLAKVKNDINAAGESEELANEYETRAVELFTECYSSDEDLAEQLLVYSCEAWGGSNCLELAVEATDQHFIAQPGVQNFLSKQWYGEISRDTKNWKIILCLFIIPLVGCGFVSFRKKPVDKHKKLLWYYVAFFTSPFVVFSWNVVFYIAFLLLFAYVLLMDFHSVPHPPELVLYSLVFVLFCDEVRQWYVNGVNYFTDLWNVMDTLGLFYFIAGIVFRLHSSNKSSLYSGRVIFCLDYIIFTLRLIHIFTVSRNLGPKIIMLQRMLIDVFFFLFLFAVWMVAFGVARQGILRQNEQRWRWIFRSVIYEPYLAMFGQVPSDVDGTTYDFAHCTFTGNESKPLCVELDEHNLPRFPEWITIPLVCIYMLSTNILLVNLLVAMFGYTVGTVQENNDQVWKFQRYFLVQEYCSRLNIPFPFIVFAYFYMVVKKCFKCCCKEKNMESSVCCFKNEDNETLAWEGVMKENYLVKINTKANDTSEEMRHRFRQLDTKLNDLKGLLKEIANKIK
T2 sequence (F1SM15 1-1104): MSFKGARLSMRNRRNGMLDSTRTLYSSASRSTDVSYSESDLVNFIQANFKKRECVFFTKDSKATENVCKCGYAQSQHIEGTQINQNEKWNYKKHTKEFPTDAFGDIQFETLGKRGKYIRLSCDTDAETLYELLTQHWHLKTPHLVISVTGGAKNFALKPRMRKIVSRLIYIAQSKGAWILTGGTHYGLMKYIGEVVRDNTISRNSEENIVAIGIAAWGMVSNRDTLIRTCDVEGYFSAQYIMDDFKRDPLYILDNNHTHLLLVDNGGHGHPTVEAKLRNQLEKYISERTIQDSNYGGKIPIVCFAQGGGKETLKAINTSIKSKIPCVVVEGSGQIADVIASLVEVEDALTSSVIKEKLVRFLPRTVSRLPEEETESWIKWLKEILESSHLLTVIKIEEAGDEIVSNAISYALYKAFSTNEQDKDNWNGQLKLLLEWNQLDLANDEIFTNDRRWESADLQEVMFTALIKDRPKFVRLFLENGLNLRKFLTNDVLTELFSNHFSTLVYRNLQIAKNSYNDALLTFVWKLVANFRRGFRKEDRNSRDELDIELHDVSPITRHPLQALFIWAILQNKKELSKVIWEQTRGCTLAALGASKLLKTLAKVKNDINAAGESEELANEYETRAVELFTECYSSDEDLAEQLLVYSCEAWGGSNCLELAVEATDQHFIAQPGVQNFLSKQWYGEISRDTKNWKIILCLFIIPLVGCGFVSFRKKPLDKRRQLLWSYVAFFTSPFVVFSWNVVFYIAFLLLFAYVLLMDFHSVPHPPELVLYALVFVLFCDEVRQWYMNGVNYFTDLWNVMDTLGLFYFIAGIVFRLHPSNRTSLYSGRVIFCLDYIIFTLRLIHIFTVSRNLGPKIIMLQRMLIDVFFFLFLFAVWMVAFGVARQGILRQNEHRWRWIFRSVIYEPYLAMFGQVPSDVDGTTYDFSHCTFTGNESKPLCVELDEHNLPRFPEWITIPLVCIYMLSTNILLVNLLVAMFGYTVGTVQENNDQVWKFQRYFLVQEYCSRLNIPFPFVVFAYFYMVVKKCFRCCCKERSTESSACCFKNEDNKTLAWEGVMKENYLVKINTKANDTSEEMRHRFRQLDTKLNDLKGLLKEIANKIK

On to `CC(C)[C@@H]1CC[C@@H](C)C[C@@]1(O)C(=O)NCC1(c2ccccc2)COC1` [Example 31, (1S,2S,5R)-1-hydroxy-2-isopropyl-5-methyl-N-((3-phenyloxetan-3-yl)methyl)cyclohexane-1-carboxamide], for which the concentration giving a half-maximal response (EC50) came out at 10.4 nM on human TRPM8 [1], 9.3 nM on pig TRPM8 [2], 2080 nM at human TRPM8 [3] and 3150 nM on pig TRPM8 [4]. Further, the change in vivo at 10 mg in assay [5] (setting [6]) came out at 119%; in assay [5] (setting [7]) it was 253%.
For the compound `CC(C)[C@@H]1CC[C@@H](C)C[C@@]1(O)C(=O)NCCc1cccc(C(N)=O)c1` [Example 49, 3-(2-((1S,2S,5R)-1-hydroxy-2-isopropyl-5-methylcyclohexane-1-carboxamido)ethyl) benzamide], the EC50 is 67 nM on human TRPM8 [1], 24.2 nM on pig TRPM8 [2], 1940 nM at human TRPM8 [3] and 1400 nM on pig TRPM8 [4]. Besides, the change in vivo at 10 mg in assay [5] (setting [6]) was found to be 300%; in assay [5] (setting [7]), 133%.
With `CC(C)[C@@H]1CC[C@@H](C)C[C@@]1(O)C(=O)NCCc1ccccc1C(=O)OCCO` [Example 22, 2-hydroxyethyl 2-(2-((1S,2S,5R)-1-hydroxy-2-isopropyl-5-methylcyclohexane-1-carboxamido)ethyl) benzoate], the concentration for a half-maximal effect (EC50) at human TRPM8 [1] came out at 25.2 nM; at pig TRPM8 [2] it was 34.5 nM; at human TRPM8 [3], 3600 nM; on pig TRPM8 [4] it was 3840 nM. Besides, the change in vivo at 10 mg in assay [5] (setting [6]) was 500%; in assay [5] (setting [7]), 182%.
For the compound `CC(C)[C@@H]1CC[C@@H](C)C[C@@]1(O)C(=O)NCCc1ccccc1CO` [Example 14, (1S,2S,5R)-1-hydroxy-N-(2-(hydroxymethyl)phenethyl)-2-isopropyl-5-methylcyclohexane-1-carboxamide], the half-maximal effective concentration (EC50) at human TRPM8 [1] was 10.3 nM; on pig TRPM8 [2], 6.7 nM; on human TRPM8 [3] it was 2720 nM; at pig TRPM8 [4], 3300 nM. Further, the figures for the change in vivo at 10 mg in assay [5] (setting [6]) and in assay [5] (setting [7]) were 62% and 73%, respectively.
As to `COC(=O)c1ccc(CCNC(=O)[C@]2(O)C[C@H](C)CC[C@H]2C(C)C)cc1` [Example 108, methyl 4-(2-((1S,2S,5R)-1-hydroxy-2-isopropyl-5-methylcyclohexane-1-carboxamido)ethyl)benzoate], the EC50 at human TRPM8 [1] was 211 nM; at pig TRPM8 [2] it was 73 nM; at pig TRPM8 [4], greater than 10000 nM. Besides, the results for the change in vivo at 10 mg in assay [5] (setting [6]) and in assay [5] (setting [7]) were 114% and 169%, respectively.
For the compound `CC(C)[C@@H]1CC[C@@H](C)C[C@@]1(O)C(=O)NCCc1cccc(C(=O)OCCN)c1` [Example 16, 2-aminoethyl 3-(2-((1S,2S,5R)-1-hydroxy-2-isopropyl-5-methylcyclohexane-1-carboxamido)ethyl) benzoate hydrochloride], the EC50 on human TRPM8 [1] was 16 nM; at pig TRPM8 [2] it was 13 nM; at human TRPM8 [3], 1290 nM; at pig TRPM8 [4], 2370 nM.
For `CC(C)[C@@H]1CC[C@@H](C)C[C@@]1(O)C(=O)NCC1(O)CCc2ccc(Cl)cc21` (stereo partly drawn) [Example 145, (1S,2S,5R)-N-[(6-chloro-1-hydroxy-indan-1-yl)methyl]-1-hydroxy-2-isopropyl-5-methyl-cyclohexanecarboxamide], the EC50 is 2.9 nM on human TRPM8 [1], 2.7 nM at pig TRPM8 [2], 230 nM at human TRPM8 [3] and 515 nM on pig TRPM8 [4].
The corresponding values for `COC(=O)Cc1cccc(CCNC(=O)[C@]2(O)C[C@H](C)CC[C@H]2C(C)C)c1` [Example 74, methyl 2-(3-(2-((1S,2S,5R)-1-hydroxy-2-isopropyl-5-methylcyclohexane-1-carboxamido)ethyl)phenyl)acetate] are 41 nM, 9 nM, 2900 nM and 5190 nM.
On the same counts, the results for `CC(C)[C@@H]1CC[C@@H](C)C[C@@]1(O)C(=O)NCC(O)c1ccccc1O` (stereo partly drawn) [Example 35, (1S,2S,5R)-1-hydroxy-N-(2-hydroxy-2-(2-hydroxyphenyl)ethyl)-2-isopropyl-5-methylcyclohexane-1-carboxamide] are 3 nM, 3 nM, 1010 nM and 1330 nM.
Turning to `COC(=O)COc1cccc(C(O)CNC(=O)[C@]2(O)C[C@H](C)CC[C@H]2C(C)C)c1` (stereo partly drawn) [Example 33, methyl 2-(3-(1-hydroxy-2-((1S,2S,5R)-1-hydroxy-2-isopropyl-5-methylcyclohexane-1-carboxamido)ethyl)phenoxy)acetate], the EC50 on human TRPM8 [1] amounted to 65 nM; on pig TRPM8 [2], 38 nM; at human TRPM8 [3] it was 4200 nM; at pig TRPM8 [4], 4310 nM.
For the compound `CC(C)[C@@H]1CC[C@@H](C)C[C@@]1(O)C(=O)NCCc1ccc(O)cc1` [Example 117, (1S,2S,5R)-1-hydroxy-N-[2-(4-hydroxyphenyl)ethyl]-2-isopropyl-5-methyl-cyclohexanecarboxamide], the concentration for a half-maximal effect (EC50) at human TRPM8 [1] came to 17.8 nM; at pig TRPM8 [2] it was 4.5 nM; at human TRPM8 [3] it was 2500 nM; at pig TRPM8 [4], 2330 nM.
For `CC(C)[C@@H]1CC[C@@H](C)C[C@@]1(O)C(=O)NCCc1ccccn1` [Example 125, (1S,2S,5R)-1-hydroxy-2-isopropyl-5-methyl-N-[2-(2-pyridyl)ethyl]cyclohexanecarboxamide], the 50% effective concentration (EC50) on human TRPM8 [1] came to 42.3 nM; at pig TRPM8 [2], 15.2 nM; on human TRPM8 [3], 5900 nM; on pig TRPM8 [4], 7740 nM.
As to `CC(C)[C@@H]1CC[C@@H](C)C[C@@]1(O)C(=O)NCC(O)c1cccc(O)c1` (stereo partly drawn) [Example 32, (1S,2S,5R)-1-hydroxy-N-(2-hydroxy-2-(3-hydroxyphenyl)ethyl)-2-isopropyl-5-methylcyclohexane-1-carboxamide], the 50% effective concentration (EC50) at human TRPM8 [1] stood at 3 nM; at pig TRPM8 [2], 3 nM; on human TRPM8 [3] it was 1230 nM; on pig TRPM8 [4], 507 nM.
Consider `CC(C)[C@@H]1CC[C@@H](C)C[C@@]1(O)C(=O)NCC1(O)CCOc2ccccc21` (stereo partly drawn) [Example 96, (1S,2S,5R)-1-hydroxy-N-((4-hydroxychroman-4-yl)methyl)-2-isopropyl-5-methylcyclohexane-1-carboxamide], for which the concentration for a half-maximal effect (EC50) came out at 10.3 nM at human TRPM8 [1], 25.2 nM at pig TRPM8 [2], 630 nM on human TRPM8 [3] and 1100 nM at pig TRPM8 [4].
With `COC(=O)[C@@H](N)Cc1ccccc1CCNC(=O)[C@]1(O)C[C@H](C)CC[C@H]1C(C)C` [Example 19, methyl (S)-2-amino-3-(2-(2-((1S,2S,5R)-1-hydroxy-2-isopropyl-5-methylcyclohexane-1-carboxamido)ethyl)phenyl)propanoate], the EC50 on human TRPM8 [1] came to 7.1 nM; at pig TRPM8 [2], 19.9 nM; at human TRPM8 [3], 1700 nM; at pig TRPM8 [4] it was 1520 nM.
On the same counts, the results for `COc1ccc(CCNC(=O)[C@]2(O)C[C@H](C)CC[C@H]2C(C)C)cc1OC` [Example 113, (1S,2S,5R)-N-[2-(3,4-dimethoxyphenyl)ethyl]-1-hydroxy-2-isopropyl-5-methyl-cyclohexanecarboxamide] are 99.4 nM, 93.5 nM, 1400 nM and 9640 nM.
